From patent US20040265846A1, “Adrenergic receptors” (DUKE UNIVERSITY, priority 2002, published 2004)
Numbering of substitutions follows the chain as printed. Read-outs that look alike come from different tables or passages of the source.

Assays:
human α1aAR WT [1] = target: T1, human α1aAR WT (Homo sapiens, UniProt P35348); assay: [125I]HEAT saturation binding on membranes, WT high expressing clone; conditions: membranes from WT α1aAR high expressing clone, rat-1 fibroblasts, 1.77±0.24 pmol/mg protein
T1 construct: expressed in transfected cells
T1 sequence (P35348 1-466): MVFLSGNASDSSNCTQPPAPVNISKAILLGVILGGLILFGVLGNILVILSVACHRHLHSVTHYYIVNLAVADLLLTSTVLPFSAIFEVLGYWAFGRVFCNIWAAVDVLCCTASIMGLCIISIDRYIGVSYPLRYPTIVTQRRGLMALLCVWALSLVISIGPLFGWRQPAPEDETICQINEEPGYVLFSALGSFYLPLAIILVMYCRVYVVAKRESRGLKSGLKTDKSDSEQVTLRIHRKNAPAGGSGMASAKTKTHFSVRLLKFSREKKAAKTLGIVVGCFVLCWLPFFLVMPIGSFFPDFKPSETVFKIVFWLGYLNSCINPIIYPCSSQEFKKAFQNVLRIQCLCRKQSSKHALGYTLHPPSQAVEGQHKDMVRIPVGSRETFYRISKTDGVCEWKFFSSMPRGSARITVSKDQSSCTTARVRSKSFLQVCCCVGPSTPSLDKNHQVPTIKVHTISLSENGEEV
Protocol: (§1) Cell Culture and Transfection. Rat-1 fibroblasts were cultured in DMEM supplemented with 10% FBS at 37° C. Cells were transfected with either the WT (reference sequence with all major alleles, GenBank accession number L31774) or mutated α1aAR in pcDNA3 by calcium phosphate precipitation. For stable transfection, clones resistant to G418 (0.8 mg/ml) were isolated and tested for receptor expression. Two different expression levels were chosen for receptor functional investigation. Low receptor expression level was defined a priori as <0.5 pmol/mg total protein, while high-level expression was defined as >1.5 pmol/mg protein.
(§2) Membrane Preparation and Radioligand Binding. Rat-1 membrane preparation and ligand binding assay using the α1AR selective antagonist, [^125I]HEAT, were performed as previously described (Schwinn et al, J. Pharmacol. Exp. Ther. 272:134-142 (1995)).
Pharmacological Characterization. In order to examine whether these polymorphic α1aARs have altered ligand binding characteristics, saturation binding isotherms were first performed to determine the dissociation constant (Kd) for the antagonist [^125I]HEAT, followed by competition assays designed to determine binding affinities for a series of α1aAR agonists and antagonists.

[2] = system: α1aAR F308 / F312 substituted receptors; conditions: cited from earlier work
human α1aAR SNPs [3] = conditions: receptors containing any SNP, high expressing clones
human α1aAR SNPs [4] = assay: NE-induced desensitization of IP response, receptors with any SNP; assay type: cell-based; conditions: high or low expression level
Protocol: (§3) The extent of desensitization was expressed as percent of reduction of IP response in pretreated cells compared with the response in naive cells. n=3-6. […] High-expression clones. […] Low-expression clones. Measurement of Intracellular Inositol Phosphate (IP) Production. […] Measurement of intracellular IP production was performed under serum-free conditions. […] For all experiments, membranes were collected for receptor quantititation and cells were counted at the time of assay.

human α1aAR SNPs [5] = assay: NE-stimulated IP production, transiently expressed polymorphic receptors; assay type: cell-based; conditions: any polymorphic receptor, transient expression 1.30-1.98 pmol/mg protein
Protocol: Effect of human α1aAR SNPs on IP signaling in transiently transfected rat-1 fibroblasts (receptor densities 1.30-1.98 pmol/mg protein). […] For each construct, IP assay, binding assay and cell number were measured in paralleled plates. […] Basal IP release.
Transient transfection was also used to express receptors for binding and IP experiments in order to verify consistent behavior using alternative methods of protein expression.
Measurement of Intracellular Inositol Phosphate (IP) Production. Rat-1 cells expressing either the WT or mutated α1aAR grown on 12-well plates were labeled with [^3H]inositol for 20-24 h with 2.5 μCi/ml in complete DMEM. Measurement of intracellular IP production was performed under serum-free conditions. […] For all experiments, membranes were collected for receptor quantititation and cells were counted at the time of assay.

human α1aAR WT [6] = target: T1, human α1aAR WT; assay: NE-induced desensitization of IP response, WT; assay type: cell-based; conditions: 10 min 10 μM NE pretreatment, compared with unpretreated
Protocol: as §3

human α1aAR SNPs [7] = assay: [125I]HEAT saturation binding on membranes, receptors containing each SNP; conditions: expression 1.53-2.37 pmol/mg
Protocol: In Vitro Site-Directed Mutagenesis in the aoclar. Site-directed mutagenesis was utilized to introduce mutations corresponding to each SNP in hemagglutinin-tagged human α1aAR previously placed in the expression vector pcDNA3 (Price et al, J. Biol. Chem. 277:9570-9579 (2002)). Mutagenesis was performed using the QuickChange™ Site-Directed Mutagenesis Kit (Stratagene) as recommended by the manufacture. All mutations were confirmed by DNA sequencing (Duke University DNA Analysis Facility).
as §1, §2
Pharmacological Characterization. […]

human α1aAR SNP V311I = target: T2, human α1aAR SNP V311I (Homo sapiens, UniProt P35348, V311I); assay: Competition binding vs [125I]HEAT, SNP V311I; conditions: high expressing clone
T2 construct: expressed in transfected cells
T2 sequence (P35348 1-466 V311I): T1 sequence (P35348 1-466) with V311I

[8] = system: α1aAR F163 (TM4) / F187 (TM5) mutants; conditions: Waugh et al 2000; cited from earlier work

For `O=C1c2ccccc2CCC1CNCCc1ccc(O)c(I)c1` (stereo not drawn) [[^125I]HEAT, ^125I-(2-β-(4-hydroxyphenyl)-ethylamineomethyl)-tetralone], which Kd (human α1aAR WT [1]) is on record?
The Kd was 0.0421 ± 0.0065 nM.

With `COc1cccc(OC)c1OCCNCC1COc2ccccc2O1` (stereo not drawn) [WB4101] as the molecule, how does the “affinity on substitution of F308 and F312” value (shortened to “affinity on substitution”) ([2]; Waugh et al 2001) read?
The value was “decreased affinity”.

With `COc1ccccc1N1CCN(CCCNc2c(C)c(=O)n(C)c(=O)n2C)CC1` [5-methylurapidil] as the molecule, how does the “affinity on substitution” value ([2]; Waugh et al 2001) read?
The value was “decreased affinity”.

For `COc1cc2nc(N3CCN(C(=O)c4ccco4)CC3)nc(N)c2cc1OC` [prazosin], which “affinity on substitution” value [2] is on record?
The value was “decreased affinity”.

Which “change in affinity vs WT” value (human α1aAR SNPs [3]) does the source give for `Cc1cc(C(C)(C)C)c(O)c(C)c1CC1=NCCN1` [oxymetazoline] here?
The value was “no change in the affinity”.

Which “agonist-induced desensitization, SNP receptors vs WT” value (human α1aAR SNPs [4]) does the source give for `NC[C@H](O)c1ccc(O)c(O)c1` [NE, (−)-norepinephrine] here?
Its value is “no difference in agonist-induced desensitization”.

What about the “maximum IP response vs WT” value (human α1aAR SNPs [5]) of the same molecule?
Its value is “no significant change”.

And the “lower IP production after NE pretreatment (desensitization)” value (human α1aAR WT [6]; high-expression level)?
Its value is 33.5±3.2%.

What about the “lower IP production after NE pretreatment (desensitization)” value (human α1aAR WT [6]; low-expression level) of the same molecule?
Its value is 31.0±3.1%.

Which “affinity on substitution” value ([2]; Waugh et al 2001) does the source give for `Cc1ccc(N(CC2=NCCN2)c2cccc(O)c2)cc1` [phentolamine] here?
The value was “not”.

Which “affinity on substitution” value ([2]; Waugh et al 2001) does the source give for `O=C1c2ccccc2CCC1CNCCc1ccc(O)c([125I])c1` (stereo not drawn) [[^125I]HEAT, ^125I-(2-β-(4-hydroxyphenyl)-ethylamineomethyl)-tetralone] here?
Its value is “not”.

What about the “Kd values for [125I]HEAT compared with WT” value (human α1aAR SNPs [7]) of the same molecule?
Its value is “not significantly different from WT”.

For `COc1ccccc1N1CCN(CCN2C(=O)CC3(CCCC3)CC2=O)CC1` [BMY7378], which “affinity on substitution” value ([2]; Waugh et al 2001) is on record?
Its value is “decreased affinity”.

With `CNC[C@H](O)c1ccc(O)c(O)c1` [epinephrine, (−)-epinephrine] as the molecule, how does the “Ki increase vs WT (decrease in receptor affinity)” value (human α1aAR SNP V311I) read?
Its value is ~3 fold.

And the “decrease in affinity on mutation of F163 or F187” value [8]?
The value was 10 fold.
